Blank lines part the entries; values can stand above or below the molecule they belong to.
Legend:
[1] = tested on: Proto-oncogene tyrosine-protein kinase receptor Ret (Homo sapiens), P07949 [E762Q]; assay: (§1) Selectivity interaction (ProQinase) EUB0000171b RET
[2] = tested on: Proto-oncogene tyrosine-protein kinase receptor Ret (Homo sapiens), P07949 [S891A]; assay: as §1
[3] = tested on: Proto-oncogene tyrosine-protein kinase receptor Ret (Homo sapiens), P07949 [M918T]; assay: as §1
[4] = tested on: Proto-oncogene tyrosine-protein kinase receptor Ret (Homo sapiens), P07949 [R813Q]; assay: as §1
[5] = tested on: Proto-oncogene tyrosine-protein kinase receptor Ret (Homo sapiens), P07949 [V804L]; assay: as §1
[6] = tested on: Proto-oncogene tyrosine-protein kinase receptor Ret (Homo sapiens), P07949 [G691S]; assay: as §1
[7] = tested on: Proto-oncogene tyrosine-protein kinase receptor Ret (Homo sapiens), P07949 [R749T]; assay: as §1
[8] = biological target: Proto-oncogene tyrosine-protein kinase receptor Ret (Homo sapiens, UniProt P07949); assay: as §1
[9] = tested on: Proto-oncogene tyrosine-protein kinase receptor Ret (Homo sapiens), P07949 [Y791F]; assay: as §1
[10] = tested on: Proto-oncogene tyrosine-protein kinase receptor Ret (Homo sapiens), P07949 [V804M]; assay: as §1
[11] = biological target: T1, Protein arginine N-methyltransferase 7 (Homo sapiens) (UniProt Q9NVM4); assay: Selectivity interaction (Methyltransferase screen (radiometric assays, panel of 8 PRMTs, 21 protein lysine methyltransferases, 3 DNA methyltransferases, and one RNA methyltransferase)) EUB0000271b PRMT7
T1 sequence (whole entry): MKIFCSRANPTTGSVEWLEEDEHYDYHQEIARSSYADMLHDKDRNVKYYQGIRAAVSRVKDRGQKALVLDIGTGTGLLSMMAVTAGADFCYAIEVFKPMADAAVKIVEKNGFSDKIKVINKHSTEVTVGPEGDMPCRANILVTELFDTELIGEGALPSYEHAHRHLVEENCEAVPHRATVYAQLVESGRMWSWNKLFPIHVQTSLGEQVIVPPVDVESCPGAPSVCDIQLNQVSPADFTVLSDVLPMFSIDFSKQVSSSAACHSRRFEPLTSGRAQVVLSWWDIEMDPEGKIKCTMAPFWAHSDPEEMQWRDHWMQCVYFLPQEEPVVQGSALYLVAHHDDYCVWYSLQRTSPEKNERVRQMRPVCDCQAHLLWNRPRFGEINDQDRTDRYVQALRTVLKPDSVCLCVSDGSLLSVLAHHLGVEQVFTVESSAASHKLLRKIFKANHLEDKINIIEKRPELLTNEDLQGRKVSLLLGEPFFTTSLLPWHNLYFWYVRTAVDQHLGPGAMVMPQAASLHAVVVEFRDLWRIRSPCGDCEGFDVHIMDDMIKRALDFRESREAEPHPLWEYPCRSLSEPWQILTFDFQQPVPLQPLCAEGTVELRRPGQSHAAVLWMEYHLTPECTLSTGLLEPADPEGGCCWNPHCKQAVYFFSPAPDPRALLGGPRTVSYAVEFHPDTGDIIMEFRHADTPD

[12] = biological target: Glycogen synthase kinase-3 beta (Homo sapiens, UniProt P49841); assay: Selectivity interaction (Kinase panel (DSF assay)) EUB0001559a GSK3B
[13] = biological target: T2, Dual specificity mitogen-activated protein kinase kinase 3 (Homo sapiens) (UniProt P46734); assay: Selectivity interaction (KinomeScan (DiscoverX)) EUB0000655a MAP2K3; conditions: at 10 µM
T2 sequence (whole entry): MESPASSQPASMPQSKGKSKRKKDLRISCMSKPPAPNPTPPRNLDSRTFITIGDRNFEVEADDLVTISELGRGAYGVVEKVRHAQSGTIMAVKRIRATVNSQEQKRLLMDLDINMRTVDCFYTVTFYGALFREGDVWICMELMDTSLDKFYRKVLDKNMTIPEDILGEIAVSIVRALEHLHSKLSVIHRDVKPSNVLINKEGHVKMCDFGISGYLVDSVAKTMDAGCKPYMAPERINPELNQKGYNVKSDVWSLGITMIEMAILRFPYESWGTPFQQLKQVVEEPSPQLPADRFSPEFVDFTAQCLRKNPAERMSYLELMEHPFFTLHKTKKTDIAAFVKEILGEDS

[14] = biological target: Cyclin-dependent kinase 2 (Homo sapiens, UniProt P24941); assay: Selectivity interaction (Kinase panel (KiNativ target engagement assay in Jurkat cells)) EUB0001635a CDK2; type: cell-based; conditions: at 1 µM
[15] = biological target: Vascular endothelial growth factor receptor 2 (Homo sapiens, UniProt P35968); assay: Selectivity interaction (KinomeScan (DiscoverX)) EUB0000618a KDR; conditions: at 10 µM
[16] = biological target: Mitogen-activated protein kinase kinase kinase 1 (Homo sapiens, UniProt Q13233); assay: Selectivity interaction (ActivX KiNativ screen (ex vivo kinase selectivity in human PBMCs)) EUB0001619a MAP3K1; type: cell-based; conditions: PBMC, at 1 µM
[17] = biological target: T3, Protein kinase C iota type (Homo sapiens) (UniProt P41743); assay: Selectivity interaction (KinomeScan (DiscoverX)) EUB0001619a PRKCI; conditions: at 1 µM
T3 sequence (whole entry): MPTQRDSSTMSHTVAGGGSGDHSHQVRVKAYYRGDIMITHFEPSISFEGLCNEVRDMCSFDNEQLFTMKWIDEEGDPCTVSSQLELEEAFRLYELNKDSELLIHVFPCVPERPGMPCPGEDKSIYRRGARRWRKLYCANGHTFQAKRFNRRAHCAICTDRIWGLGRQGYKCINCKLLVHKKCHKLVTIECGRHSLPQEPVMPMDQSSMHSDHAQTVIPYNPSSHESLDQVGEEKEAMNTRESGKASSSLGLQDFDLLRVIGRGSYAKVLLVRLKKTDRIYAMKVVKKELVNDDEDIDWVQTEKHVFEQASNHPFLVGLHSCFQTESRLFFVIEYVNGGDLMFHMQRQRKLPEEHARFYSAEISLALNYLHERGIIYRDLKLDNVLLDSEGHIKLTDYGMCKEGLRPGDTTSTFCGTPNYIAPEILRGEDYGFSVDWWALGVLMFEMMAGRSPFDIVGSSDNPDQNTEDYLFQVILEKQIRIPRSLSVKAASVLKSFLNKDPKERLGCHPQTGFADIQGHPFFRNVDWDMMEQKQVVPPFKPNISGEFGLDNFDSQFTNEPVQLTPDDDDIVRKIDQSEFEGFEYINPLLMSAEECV

Proto-oncogene tyrosine-protein kinase receptor Ret (Homo sapiens), P07949 [Y791F], sequence (P07949 whole entry Y791F): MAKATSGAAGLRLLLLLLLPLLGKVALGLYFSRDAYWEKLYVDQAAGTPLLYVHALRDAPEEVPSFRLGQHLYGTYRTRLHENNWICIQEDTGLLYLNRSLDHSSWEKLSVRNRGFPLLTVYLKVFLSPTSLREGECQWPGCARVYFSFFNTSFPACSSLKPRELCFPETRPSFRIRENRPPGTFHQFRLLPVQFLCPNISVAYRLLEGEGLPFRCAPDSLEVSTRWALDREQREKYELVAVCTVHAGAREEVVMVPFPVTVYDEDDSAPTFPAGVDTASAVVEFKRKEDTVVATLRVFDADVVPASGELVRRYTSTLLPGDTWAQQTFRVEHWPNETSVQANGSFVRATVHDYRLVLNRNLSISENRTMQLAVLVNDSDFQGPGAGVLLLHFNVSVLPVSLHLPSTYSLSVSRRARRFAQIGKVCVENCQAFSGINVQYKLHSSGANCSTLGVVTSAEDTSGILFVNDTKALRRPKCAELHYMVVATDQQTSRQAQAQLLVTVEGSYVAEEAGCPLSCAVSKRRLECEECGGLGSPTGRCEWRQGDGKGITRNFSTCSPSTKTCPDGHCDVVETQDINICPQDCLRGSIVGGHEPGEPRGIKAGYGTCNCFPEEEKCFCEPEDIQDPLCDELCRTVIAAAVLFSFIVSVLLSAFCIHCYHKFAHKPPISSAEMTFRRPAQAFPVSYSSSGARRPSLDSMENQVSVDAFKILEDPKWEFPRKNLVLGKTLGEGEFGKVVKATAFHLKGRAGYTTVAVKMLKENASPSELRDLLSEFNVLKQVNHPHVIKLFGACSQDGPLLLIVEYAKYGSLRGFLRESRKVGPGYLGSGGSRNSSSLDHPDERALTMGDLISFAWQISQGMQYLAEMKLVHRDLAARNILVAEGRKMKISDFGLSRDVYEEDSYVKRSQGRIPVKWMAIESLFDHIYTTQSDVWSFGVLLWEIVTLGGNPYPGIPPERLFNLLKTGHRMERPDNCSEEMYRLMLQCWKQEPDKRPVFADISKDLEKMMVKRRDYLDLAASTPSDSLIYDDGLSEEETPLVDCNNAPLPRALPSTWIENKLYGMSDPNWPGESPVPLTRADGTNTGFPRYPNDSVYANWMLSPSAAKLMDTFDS
Proto-oncogene tyrosine-protein kinase receptor Ret (Homo sapiens), P07949 [V804L], sequence (P07949 whole entry V804L): as the sequence (P07949 whole entry Y791F) above, with F791Y, V804L counted along it
Proto-oncogene tyrosine-protein kinase receptor Ret (Homo sapiens), P07949 [R749T], sequence (P07949 whole entry R749T): as the sequence (P07949 whole entry Y791F) above, with R749T, F791Y counted along it
Proto-oncogene tyrosine-protein kinase receptor Ret (Homo sapiens), P07949 [M918T], sequence (P07949 whole entry M918T): as the sequence (P07949 whole entry Y791F) above, with F791Y, M918T counted along it
Glycogen synthase kinase-3 beta, sequence (P49841 whole entry, looked up): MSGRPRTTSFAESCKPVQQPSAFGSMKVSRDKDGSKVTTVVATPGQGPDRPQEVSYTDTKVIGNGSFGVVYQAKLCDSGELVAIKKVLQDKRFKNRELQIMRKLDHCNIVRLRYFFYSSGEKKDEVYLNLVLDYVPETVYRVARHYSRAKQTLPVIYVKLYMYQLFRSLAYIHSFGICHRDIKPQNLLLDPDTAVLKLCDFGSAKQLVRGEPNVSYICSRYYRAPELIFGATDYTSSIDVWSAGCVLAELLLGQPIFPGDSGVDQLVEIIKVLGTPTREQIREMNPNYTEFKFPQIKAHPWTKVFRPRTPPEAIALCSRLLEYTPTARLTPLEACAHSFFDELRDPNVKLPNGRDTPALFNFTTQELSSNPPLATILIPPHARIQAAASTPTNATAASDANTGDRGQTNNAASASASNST

% of control ([1]; at 1 µM): 95%
% of control ([1]; at 5 µM): 78%
% of control ([2]; at 1 µM): 95%
% of control ([2]; at 5 µM): 74%
% of control ([3]; at 1 µM): 97%
% of control ([3]; at 5 µM): 82%
% of control ([4]; at 1 µM): 98%
% of control ([4]; at 5 µM): 75%
% of control ([5]; at 1 µM): 88%
% of control ([5]; at 5 µM): 80%
% of control ([6]; at 1 µM): 90%
% of control ([6]; at 5 µM): 77%
% of control ([7]; at 1 µM): 96%
% of control ([7]; at 5 µM): 76%
% of control ([8]; at 1 µM): 87%
% of control ([8]; at 5 µM): 72%
% of control ([9]; at 1 µM): 96%
% of control ([9]; at 5 µM): 71%
% of control ([10]; at 1 µM): 98%
% of control ([10]; at 5 µM): 90%
SMILES: C=CC(=O)Nc1cccc(C(=O)Nc2ccc(Nc3cc(-c4[nH]c(SC)nc4C)ccn3)cc2)c1

SMILES: Cc1cc(C)cc([C@@H]2c3cc(C)ccc3NC(=O)CN2C(=O)c2ccc(Br)s2)c1
% of activity ([11]; at 1 µM): 97.7%
% of activity ([11]; at 10 µM): 103%

dTM [12]: -0.4 K
SMILES: CN(C(=O)c1cnn2cccnc12)c1cc2c(cc1N1CCOCC1)C(=O)N(C[C@@H](F)C(C)(C)O)C2

SMILES: CN(C)CCOc1ccc(-c2nc(-c3ccncc3)c(-c3ccc4c(c3)CC/C4=N\O)[nH]2)cc1
% of control [13]: 84%

SMILES: C=CC(=O)Nc1ccc(C(=O)Nc2[nH]nc3c2CN(C(=O)N[C@H](CN(C)C)c2ccccc2)C3(C)C)cc1
% of engagement ([14]; Selectivity number of off-targets 0.0, Selectivity number of targets 233.0, Source Knowledge https://www.sciencedirect.com/science/article/pii/S2451945619300674?via%3Dihub): -25.3%
% of engagement [14]: -16.4%

SMILES: O[C@H]1CC[C@H](Nc2ncc3nc(Nc4c(F)cc(F)cc4F)n([C@H]4CCOC4)c3n2)CC1
% of control [15]: 100%

SMILES: N#Cc1cccc(-c2c[nH]c3ncnc(N4CCOCC4)c23)c1
% of inhibition [16]: 45%
% of control [17]: 100%

Source: ChEMBL document CHEMBL5465560, “Selectivity Literature for EUbOPEN Chemogenomic Library” (2024)
